Measured values as given in patent US20260115250A1, “METHODS OF TREATING AGE-RELATED MACULAR DEGENERATION” (Character Biosciences, Inc., priority 2022, published 2026).
Peptide text beside a SMILES is read from it.

Columns and labels:
ABCA1 = molecular target: T1, ABCA1 (Mus musculus, UniProt P41233); assay: membrane ABCA1 stability testing in J774 cells; assay type: cell-based, murine; details: 4 hours
T1 construct: endogenous in cells; host or cells: J774 murine macrophage cells, ABCA1 induced with 8-Br-cAMP and AcLDL
Description: FIGS. 33A-33C illustrate the results of membrane ABCA1 stability testing in J774 Cells. J774 murine macrophage cells were seeded at 50,000 cells per well on 12-well plates and were allowed to grow to confluence. A vehicle solution of 0.1% BSA in serum-free DMEM was prepared for control wells. An ABCA1 induction solution of 0.1% BSA with 1 mM 8-Br-CAMP and 50 μg/mL AcLDL was prepared in serum-free DMEM and incubated on cells overnight at 37° C. to increase ABCA1 protein levels on the membrane. A solution of 10 μM peptide was prepared in serum-free DMEM and serially diluted 1:10 for 4 concentrations. ApoAI was prepared at a concentration of 300 nM. Peptides or ApoA1 were added to cells for 4 hours at 37° C. before isolating membrane protein and measuring membrane ABCA1 levels by western blot. Blots were quantified in ImageJ and the signal was normalized to membrane Na+/K+ pump levels. Signals were further normalized to the 18-hour cAMP treated group to determine percent (%) Membrane ABCA1 remaining.

ARPE-19 cells = assay: ARPE-19 cell viability assay (Cell Titer Glo); assay type: cell-based, human; details: 100 μM peptide, 1.5 hours
Description: ARPE-19 cells were seeded in 96-well plates at 25,000 cells/well and allowed to adhere to the plate surface for at least 24 hours. Peptides were diluted in serum-free DMEM: F12 to a final concentration of 100 μM. Cells were washed, then incubated in 100 μM peptide solution for 1.5 hours at 37° C. Plates were brought to room temperature for 30 minutes, then washed with DPBS. Cells were incubated in a 1:1 mixture of DPBS and Cell Titer Glo 2.0 Reagent for 10 minutes at room temperature, then cell luminescence was read on a plate reader. Viability values were background corrected, and 0% viability is determined by luminescence values of cells treated with 1% Triton-X-100. Data are presented as mean+SD over two separate runs.

LDLR [1] = molecular target: T2, LDLR (Homo sapiens, UniProt P01130); assay: LDLR binding (SPR), high surfactant preparation; details: high surfactant preparation (HBS-P+), 1:1 binding model; read-out: binding KD to LDLR
Summary of the method: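 Surface plasmon resonance with recombinant LDLR amine-coupled to a CM5 chip at 1000 RU. Peptides, 5 μM top concentration then 1:3 dilutions (5 levels) in HBS-P+ with 1 mM CaCl2, injected 120 seconds at 30 μL/sec; multi-cycle kinetics fitted to a 1:1 binding model.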
Target sequence in this assay (P01130 22-860): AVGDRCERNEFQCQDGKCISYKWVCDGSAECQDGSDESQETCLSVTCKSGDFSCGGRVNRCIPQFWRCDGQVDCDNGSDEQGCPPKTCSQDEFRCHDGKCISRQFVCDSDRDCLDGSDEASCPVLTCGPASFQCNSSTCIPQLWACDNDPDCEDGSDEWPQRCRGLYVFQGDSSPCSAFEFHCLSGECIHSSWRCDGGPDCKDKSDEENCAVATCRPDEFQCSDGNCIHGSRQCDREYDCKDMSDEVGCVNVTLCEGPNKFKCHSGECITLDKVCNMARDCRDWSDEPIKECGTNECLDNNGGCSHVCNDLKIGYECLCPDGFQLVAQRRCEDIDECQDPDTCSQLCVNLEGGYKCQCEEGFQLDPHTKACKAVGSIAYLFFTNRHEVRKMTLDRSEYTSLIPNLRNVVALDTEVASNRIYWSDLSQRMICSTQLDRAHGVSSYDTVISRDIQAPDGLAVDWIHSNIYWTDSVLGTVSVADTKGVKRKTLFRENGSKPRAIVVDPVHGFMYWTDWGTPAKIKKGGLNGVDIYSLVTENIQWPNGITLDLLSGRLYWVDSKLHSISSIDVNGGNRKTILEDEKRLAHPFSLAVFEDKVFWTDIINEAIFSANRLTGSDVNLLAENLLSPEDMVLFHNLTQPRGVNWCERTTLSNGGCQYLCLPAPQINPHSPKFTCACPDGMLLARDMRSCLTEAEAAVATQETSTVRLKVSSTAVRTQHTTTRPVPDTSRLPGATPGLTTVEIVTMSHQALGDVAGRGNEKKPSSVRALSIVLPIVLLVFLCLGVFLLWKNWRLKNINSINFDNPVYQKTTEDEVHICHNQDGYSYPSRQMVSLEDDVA

LDLR [2] = molecular target: T2, LDLR; assay: KD (µM)
Excerpt: Table printed on a drawing sheet, FIG. 23
Title: Buffer: HBS + 0.05% P20
Head of the field: KD (µM)
The patent's description of the figure: FIG. 23 is a table showing the binding kinetics results of LDLR binding assays (SPR), high surfactant preparation as described herein for select peptides shown in FIG. 1A-1I.
First copying reader's note: Right of three side-by-side panels of FIG. 23; the KD cells hold value ± error together.
Where the first naming reader finds the target: description_of_the_figure: FIG. 23 is a table showing the binding kinetics results of LDLR binding assays (SPR), high surfactant preparation
Target sequence in this assay (P01130 22-860 limits assumed): as the sequence (P01130 22-860) above

T1 sequence (P41233 whole entry): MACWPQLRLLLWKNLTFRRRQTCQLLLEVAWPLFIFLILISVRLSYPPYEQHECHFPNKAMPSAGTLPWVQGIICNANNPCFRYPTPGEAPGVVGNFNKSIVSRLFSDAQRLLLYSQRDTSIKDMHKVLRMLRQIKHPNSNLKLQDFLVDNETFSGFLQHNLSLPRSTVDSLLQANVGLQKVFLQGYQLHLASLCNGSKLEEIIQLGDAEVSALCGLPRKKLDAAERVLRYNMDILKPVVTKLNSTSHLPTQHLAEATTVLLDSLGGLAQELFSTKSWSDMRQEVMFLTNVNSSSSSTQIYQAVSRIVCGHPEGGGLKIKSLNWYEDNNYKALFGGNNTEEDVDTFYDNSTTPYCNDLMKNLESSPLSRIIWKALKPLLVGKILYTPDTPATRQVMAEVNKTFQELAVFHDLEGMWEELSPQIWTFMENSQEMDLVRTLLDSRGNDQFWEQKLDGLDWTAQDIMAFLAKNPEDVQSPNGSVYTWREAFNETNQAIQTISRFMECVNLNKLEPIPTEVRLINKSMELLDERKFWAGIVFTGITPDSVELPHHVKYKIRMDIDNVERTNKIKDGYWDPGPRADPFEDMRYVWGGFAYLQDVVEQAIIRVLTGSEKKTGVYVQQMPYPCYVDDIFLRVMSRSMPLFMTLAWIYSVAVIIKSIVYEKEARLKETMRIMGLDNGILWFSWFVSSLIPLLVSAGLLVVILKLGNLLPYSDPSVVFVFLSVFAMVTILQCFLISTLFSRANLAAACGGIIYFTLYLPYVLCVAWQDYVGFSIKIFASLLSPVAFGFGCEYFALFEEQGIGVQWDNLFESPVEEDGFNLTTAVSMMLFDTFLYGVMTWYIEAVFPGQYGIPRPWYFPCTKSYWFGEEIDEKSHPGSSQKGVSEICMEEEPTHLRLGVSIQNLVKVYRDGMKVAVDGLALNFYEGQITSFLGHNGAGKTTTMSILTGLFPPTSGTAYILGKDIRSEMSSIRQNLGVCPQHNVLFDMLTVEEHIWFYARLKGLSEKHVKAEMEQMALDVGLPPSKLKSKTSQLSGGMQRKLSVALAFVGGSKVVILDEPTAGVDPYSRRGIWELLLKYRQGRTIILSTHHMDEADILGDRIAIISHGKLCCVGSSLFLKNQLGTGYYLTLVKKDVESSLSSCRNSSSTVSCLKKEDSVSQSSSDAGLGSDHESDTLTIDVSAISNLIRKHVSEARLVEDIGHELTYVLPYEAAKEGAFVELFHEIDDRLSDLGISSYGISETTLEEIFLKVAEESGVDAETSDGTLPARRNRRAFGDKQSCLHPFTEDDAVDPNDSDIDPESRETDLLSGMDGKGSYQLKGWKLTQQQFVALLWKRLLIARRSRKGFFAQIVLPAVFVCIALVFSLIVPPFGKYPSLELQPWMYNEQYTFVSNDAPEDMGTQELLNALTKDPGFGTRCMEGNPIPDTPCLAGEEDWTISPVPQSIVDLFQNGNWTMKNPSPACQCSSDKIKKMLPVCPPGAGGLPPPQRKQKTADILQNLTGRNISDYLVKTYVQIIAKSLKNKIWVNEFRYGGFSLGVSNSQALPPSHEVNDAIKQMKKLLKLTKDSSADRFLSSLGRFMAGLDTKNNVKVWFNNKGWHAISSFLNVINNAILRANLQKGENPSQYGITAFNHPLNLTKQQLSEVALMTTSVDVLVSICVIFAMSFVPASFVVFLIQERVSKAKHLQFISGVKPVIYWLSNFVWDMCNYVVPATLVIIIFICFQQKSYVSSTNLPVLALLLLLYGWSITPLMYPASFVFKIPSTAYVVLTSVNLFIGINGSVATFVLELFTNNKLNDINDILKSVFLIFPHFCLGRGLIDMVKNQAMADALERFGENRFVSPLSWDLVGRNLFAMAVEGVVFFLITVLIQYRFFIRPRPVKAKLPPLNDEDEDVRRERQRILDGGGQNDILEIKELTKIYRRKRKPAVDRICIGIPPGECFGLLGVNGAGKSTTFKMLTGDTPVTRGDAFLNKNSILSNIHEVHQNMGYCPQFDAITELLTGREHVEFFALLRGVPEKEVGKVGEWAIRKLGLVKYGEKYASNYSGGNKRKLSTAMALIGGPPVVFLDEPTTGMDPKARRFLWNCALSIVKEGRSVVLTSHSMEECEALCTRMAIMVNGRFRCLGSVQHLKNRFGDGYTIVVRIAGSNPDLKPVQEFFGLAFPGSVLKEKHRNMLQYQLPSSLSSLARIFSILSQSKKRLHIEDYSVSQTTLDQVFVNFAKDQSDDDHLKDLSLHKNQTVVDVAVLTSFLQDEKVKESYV

membrane ABCA1 levels after washout of 8-Br-cAMP (ABCA1) | Kd (LDLR [1]) [nM] | Kd (LDLR [2]) [nM] | Molecule | ARPE-19 cell viability (ARPE-19 cells)
preserved membrane ABCA1 levels |  |  | ApoA1: positive control protein ApoA1 (apolipoprotein A1) | 
 | < 10000 | 1200 ± 90 | CC(C)C[C@H](NC(=O)[C@H](CC(=O)O)NC(=O)[C@H](CCCCN)NC(=O)CNC(=O)[C@H](Cc1ccc(O)cc1)NC(=O)[C@H](CC(=O)O)NC(=O)[C@@H](NC(=O)[C@@H](NC(=O)[C@@H](NC(=O)[C@H](CCC(N)=O)NC(=O)[C@H](Cc1ccccc1)NC(=O)[C@H](Cc1ccc(O)cc1)NC(=O)[C@H](CCC(N)=O)NC(=O)[C@H](CO)NC(=O)[C@@H](NC(=O)[C@H](CC(C)C)NC(=O)[C@H](CO)NC(=O)[C@H](CCCNC(=N)N)NC(=O)[C@H](CC(C)C)NC(=O)[C@H](CC(C)C)NC(=O)[C@H](CCCNC(=N)N)NC(=O)[C@H](CCCCN)NC(=O)[C@H](CCCNC(=N)N)NC(=O)[C@H](CC(C)C)NC(=O)[C@H](CCCCN)NC(=O)[C@H](CCCNC(=N)N)NC(=O)[C@H](CC(C)C)NC(=O)[C@@H](N)Cc1c[nH]cn1)C(C)C)[C@@H](C)O)C(C)C)[C@@H](C)O)C(=O)O [T-109] (H-HLRKLRKRLLRSLVSQYFQTVTDYGKDL-OH) | substantial change in viability
